From patent US8338465B2, “Cyclic carboxylic acid rhodanine derivatives for the treatment and prevention of tuberculosis” (priority 2006, dated 2012)

The molecules below were run against T1, dihydrolipoamide acyltransferase (DlaT) (Mycobacterium tuberculosis, UniProt P9WIS7) (assay: DlaT inhibition (Dlat IC50); DTNB peroxidase assay with Lpd, DlaT and AhpD). Settings: Dlat IC50 category.
T1 sequence (P9WIS7 1-553): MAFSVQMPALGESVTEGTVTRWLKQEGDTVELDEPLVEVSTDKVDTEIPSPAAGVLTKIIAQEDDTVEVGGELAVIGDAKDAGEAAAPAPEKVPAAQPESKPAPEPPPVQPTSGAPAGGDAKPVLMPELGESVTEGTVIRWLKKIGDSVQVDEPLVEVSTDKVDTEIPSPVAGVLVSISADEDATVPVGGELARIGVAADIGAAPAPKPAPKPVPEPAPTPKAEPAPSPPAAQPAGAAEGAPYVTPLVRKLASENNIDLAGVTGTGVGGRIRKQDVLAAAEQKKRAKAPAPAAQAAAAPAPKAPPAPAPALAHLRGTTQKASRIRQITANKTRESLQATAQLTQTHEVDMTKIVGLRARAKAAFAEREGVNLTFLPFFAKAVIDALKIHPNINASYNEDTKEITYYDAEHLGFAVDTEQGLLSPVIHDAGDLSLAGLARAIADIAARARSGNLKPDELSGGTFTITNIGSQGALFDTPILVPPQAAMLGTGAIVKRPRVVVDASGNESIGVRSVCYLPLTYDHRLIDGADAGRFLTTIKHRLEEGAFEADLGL
Type: biochemical
Molecule `COc1ccc(-c2ccc(C=C3SC(=S)N(Nc4ccccc4C(=O)O)C3=O)o2)cc1` [Compound D14, 2-{5-[1-[5-(4-methoxy-phenyl)-furan-2-yl]-methylidene]-4-oxo-2-thioxo-thiazolidin-3-ylamino}-benzoic acid] has an IC50 of under 10 µM. For `Cc1ccccc1-c1cccc(C=C2SC(=S)N(Nc3ccccc3C(=O)O)C2=O)n1` [Compound D15, 2-[4-Oxo-2-thioxo-5-(6-o-tolyl-pyridin-2-ylmethylene)-thiazolidin-3-ylamino]-benzoic acid], the IC50 was 11 to 40 µM. In the case of `O=C(O)c1cccc(NN2C(=O)C(=Cc3ccc(-c4ccccc4Cl)o3)SC2=S)c1` [Compound D16, 3-{5-[1-[5-(2-chloro-phenyl)-furan-2-yl]-methylidene]-4-oxo-2-thioxo-thiazolidin-3-ylamino}-benzoic acid], the IC50 is reported as under 10 µM. With `O=C(O)c1cccc(NN2C(=O)C(=Cc3ccc(-c4cccc(C(F)(F)F)c4)o3)SC2=S)c1` [Compound D17, 3-{5-[1-[5-(3-trifluoromethyl-phenyl)-furan-2-yl]-methylidene]-4-oxo-2-thioxo-thiazolidin-3-ylamino}-benzoic acid] the IC50 was under 10 µM. `O=C(O)c1cccc(NN2C(=O)C(=Cc3ccc(-c4ccc(Cl)cc4)o3)SC2=S)c1` [Compound D18, 3-{5-[1-[5-(4-chloro-phenyl)-furan-2-yl]-methylidene]-4-oxo-2-thioxo-thiazolidin-3-ylamino}-benzoic acid] gave an IC50 of under 10 µM. `COc1ccc(-c2ccc(C=C3SC(=S)N(Nc4ccccc4C(=O)O)C3=O)o2)c(OC)c1` [Compound D19, 2-{5-[1-[5-(2,4-dimethoxy-phenyl)-furan-2-yl]-methylidene]-4-oxo-2-thioxo-thiazolidin-3-ylamino}-benzoic acid] showed an IC50 of under 10 µM. `O=C(O)c1ccc(NN2C(=O)C(=Cc3ccc(-c4ccccc4Cl)o3)SC2=S)cc1` [Compound D20, 4-{5-[5-(2-Chloro-phenyl)-furan-2-ylmethylene]-4-oxo-2-thioxo-thiazolidin-3-ylamino}-benzoic acid] was tested, and the IC50 was 11 to 40 µM. In the case of `O=C(O)c1ccc(NN2C(=O)C(=Cc3ccc(-c4ccc(Cl)cc4)o3)SC2=S)cc1` [Compound D21, 4-{5-[5-(4-Chloro-phenyl)-furan-2-ylmethylene]-4-oxo-2-thioxo-thiazolidin-3-ylamino}-benzoic acid], the IC50 is reported as under 10 µM. Work on `O=C(O)c1ccccc1NN1C(=O)C(=Cc2ccc(-c3ccc4[nH]ccc4c3)o2)SC1=S` [Compound D22, 2-{5-[5-(1H-Indol-5-yl)-furan-2-ylmethylene]-4-oxo-2-thioxo-thiazolidin-3-ylamino}-benzoic acid] yielded an IC50 of under 10 µM. Molecule `Cc1cc(Cl)ccc1-c1ccc(C=C2SC(=S)N(Nc3ccccc3C(=O)O)C2=O)o1` [Compound D23, 2-{5-[1-[5-(4-chloro-2-methyl-phenyl)-furan-2-yl]-methylidene]-4-oxo-2-thioxo-thiazolidin-3-ylamino}-benzoic acid] has an IC50 of under 10 µM. `Cc1cccc(C)c1-c1ccc(C=C2SC(=S)N(Nc3ccccc3C(=O)O)C2=O)o1` [Compound D24, 2-{5-[5-(2,6-Dimethyl-phenyl)-furan-2-ylmethylene]-4-oxo-2-thioxo-thiazolidin-3-ylamino}-benzoic acid] showed an IC50 of under 10 µM. `COc1cc(F)ccc1-c1ccc(C=C2SC(=S)N(Nc3ccccc3C(=O)O)C2=O)o1` [Compound D25, 2-{5-[1-[5-(4-fluoro-2-methoxy-phenyl)-furan-2-yl]-methylidene]-4-oxo-2-thioxo-thiazolidin-3-ylamino}-benzoic acid] gave an IC50 of under 10 µM. `COc1ccc(-c2ccc(C=C3SC(=S)N(Nc4ccccc4C(=O)O)C3=O)o2)cc1F` [Compound D26, 2-{5-[1-[5-(3-fluoro-4-methoxy-phenyl)-furan-2-yl]-methylidene]-4-oxo-2-thioxo-thiazolidin-3-ylamino}-benzoic acid] gave an IC50 of under 10 µM. `O=C(O)c1ccccc1NN1C(=O)C(=Cc2ccc(-c3ccccc3OCc3ccccc3)o2)SC1=S` [Compound D27, 2-{5-[1-[5-(2-benzyloxy-phenyl)-furan-2-yl]-methylidene]-4-oxo-2-thioxo-thiazolidin-3-ylamino}-benzoic acid] was tested, and the IC50 was 11 to 40 µM. For `Cc1cc(C)c(-c2ccc(C=C3SC(=S)N(Nc4ccccc4C(=O)O)C3=O)o2)c(C)c1` [Compound D28, 2-{4-Oxo-2-thioxo-5-[5-(2,4,6-trimethyl-phenyl)-furan-2-ylmethylene]-thiazolidin-3-ylamino}-benzoic acid], the IC50 was under 10 µM. With `Cc1cc(N(C)C)ccc1-c1ccc(C=C2SC(=S)N(Nc3ccccc3C(=O)O)C2=O)o1` [Compound D29, 2-{5-[5-(4-Dimethylamino-2-methyl-phenyl)-furan-2-ylmethylene]-4-oxo-2-thioxo-thiazolidin-3-ylamino}-benzoic acid] the IC50 was 11 to 40 µM. `CSc1ccccc1-c1ccc(C=C2SC(=S)N(Nc3ccccc3C(=O)O)C2=O)o1` [Compound D30, 2-{5-[1-[5-(2-methylsulfanyl-phenyl)-furan-2-yl]-methylidene]-4-oxo-2-thioxo-thiazolidin-3-ylamino}-benzoic acid] gave an IC50 of under 10 µM. `CN(C)c1ccc(-c2ccc(C=C3SC(=S)N(Nc4ccccc4C(=O)O)C3=O)o2)cc1` [Compound D31, 2-{5-[5-(4-Dimethylamino-phenyl)-furan-2-ylmethylene]-4-oxo-2-thioxo-thiazolidin-3-ylamino}-benzoic acid] gave an IC50 of 11 to 40 µM. In the case of `O=C(O)c1ccccc1NN1C(=O)C(=Cc2ccc(-c3ccccc3Oc3ccccc3)o2)SC1=S` [Compound D33, 2-{4-oxo-5-[1-[5-(2-phenoxy-phenyl)-furan-2-yl]-methylidene]-2-thioxo-thiazolidin-3-ylamino}-benzoic acid], the IC50 is reported as under 10 µM. `Cc1ccccc1-c1ccc(C=C2SC(=S)N(Nc3ccccc3C(=O)O)C2=O)s1` [Compound D34, 2-{4-oxo-2-thioxo-5-[1-(5-o-tolyl-thiophen-2-yl)-methylidene]-thiazolidin-3-ylamino}-benzoic acid] gave an IC50 of under 10 µM. For `O=C(O)c1ccccc1NN1C(=O)C(=Cc2ccc(-c3ccccc3Cl)s2)SC1=S` [Compound D35, 2-{4-oxo-2-thioxo-5-[1-(5-2-chloro-thiophen-2-yl)-methylidene]-thiazolidin-3-ylamino}-benzoic acid], the IC50 was under 10 µM. With `O=C(O)c1ccccc1NN1C(=O)C(=Cc2ccc(-c3ccccc3F)s2)SC1=S` [Compound D36, 2-{4-oxo-2-thioxo-5-[1-(5-2-fluoro-thiophen-2-yl)-methylidene]-thiazolidin-3-ylamino}-benzoic acid] the IC50 was under 10 µM. For `O=C(O)c1ccc(NN2C(=O)C(=Cc3ccc(-c4cccc(C(F)(F)F)c4)o3)SC2=S)cc1` [Compound D37, 4-{4-oxo-2-thioxo-5-[5-(3-trifluoromethyl-phenyl)-furan-2-ylmethylene]-thiazolidin-3-ylamino}-benzoic acid], the IC50 was under 10 µM. `CCc1ccc(-c2ccc(C=C3SC(=S)N(Nc4ccccc4C(=O)O)C3=O)o2)cc1` [Compound D38, 2-{5-[1-[5-(4-ethyl-phenyl)-furan-2-yl]-methylidene]-4-oxo-2-thioxo-thiazolidin-3-ylamino}-benzoic acid] was tested, and the IC50 was under 10 µM. `O=C(O)c1ccccc1NN1C(=O)C(=Cc2ccc(-c3ccc(C(F)(F)F)cc3)o2)SC1=S` [Compound D39, 2-{4-oxo-2-thioxo-5-[1-[5-(4-trifluoromethyl-phenyl)-furan-2-yl]-methylidene]-thiazolidin-3-ylamino}-benzoic acid] gave an IC50 of under 10 µM.
